Experimental data reported in BindingDB's records for doi:10.1021/acs.jnatprod.9b00140 (University of Illinois At Chicago, 2019).

Biological target: Transcription factor p65 (Human, UniProt Q04206)
Assay: Inhibition of TNF alpha stimulated NF-KappaB p65 in human HeLa nuclear extract assessed as decrease in NF-KappaB translocation to nucleus measured after 5 hrs by ELISA

Chain of Transcription factor p65 (Q04206 whole entry): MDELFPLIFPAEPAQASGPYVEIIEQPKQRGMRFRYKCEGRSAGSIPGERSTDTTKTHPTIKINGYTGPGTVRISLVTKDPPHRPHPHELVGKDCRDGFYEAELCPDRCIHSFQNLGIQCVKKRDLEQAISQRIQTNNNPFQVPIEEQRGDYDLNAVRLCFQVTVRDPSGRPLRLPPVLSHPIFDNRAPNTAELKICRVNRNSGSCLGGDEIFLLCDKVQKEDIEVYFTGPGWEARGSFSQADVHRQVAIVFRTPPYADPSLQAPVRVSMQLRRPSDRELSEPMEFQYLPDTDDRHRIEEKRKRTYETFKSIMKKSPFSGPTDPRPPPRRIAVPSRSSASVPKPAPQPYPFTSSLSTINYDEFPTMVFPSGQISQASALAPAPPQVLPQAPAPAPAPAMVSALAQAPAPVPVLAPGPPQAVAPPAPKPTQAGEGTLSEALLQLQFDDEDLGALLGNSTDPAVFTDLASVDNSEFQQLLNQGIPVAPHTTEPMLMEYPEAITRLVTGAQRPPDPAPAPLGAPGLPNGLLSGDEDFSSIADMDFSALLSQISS

## C[C@H]1O[C@@H](O[C@H]2CC[C@]3(C)[C@H]4CC[C@]5(C)[C@@H](C6=CC(=O)OC6)CC[C@]5(O)[C@@H]4CC[C@]3(O)C2)C[C@H](O)[C@@H]1O[C@@H]1O[C@H](CO)[C@@H](O)[C@H](O)[C@H]1O
  IC50: 4.3 µM
